Experimental data taken from EP2970215B1, “PYRROLIDINE DERIVATIVES, PHARMACEUTICAL COMPOSITIONS CONTAINING THEM, AND THEIR USE IN THERAPY” (AbbVie Deutschland GmbH & Co. KG, priority 2013, dated 2014).

Biological target: T1, human GlyT1c transporter (Homo sapiens, UniProt P48067)
T1 construct: expressed in transfected cells; host or cells: CHO cells (recombinant; line hGlyT1c_5_CHO is named for the uptake assay)
T1 sequence (P48067 1-706): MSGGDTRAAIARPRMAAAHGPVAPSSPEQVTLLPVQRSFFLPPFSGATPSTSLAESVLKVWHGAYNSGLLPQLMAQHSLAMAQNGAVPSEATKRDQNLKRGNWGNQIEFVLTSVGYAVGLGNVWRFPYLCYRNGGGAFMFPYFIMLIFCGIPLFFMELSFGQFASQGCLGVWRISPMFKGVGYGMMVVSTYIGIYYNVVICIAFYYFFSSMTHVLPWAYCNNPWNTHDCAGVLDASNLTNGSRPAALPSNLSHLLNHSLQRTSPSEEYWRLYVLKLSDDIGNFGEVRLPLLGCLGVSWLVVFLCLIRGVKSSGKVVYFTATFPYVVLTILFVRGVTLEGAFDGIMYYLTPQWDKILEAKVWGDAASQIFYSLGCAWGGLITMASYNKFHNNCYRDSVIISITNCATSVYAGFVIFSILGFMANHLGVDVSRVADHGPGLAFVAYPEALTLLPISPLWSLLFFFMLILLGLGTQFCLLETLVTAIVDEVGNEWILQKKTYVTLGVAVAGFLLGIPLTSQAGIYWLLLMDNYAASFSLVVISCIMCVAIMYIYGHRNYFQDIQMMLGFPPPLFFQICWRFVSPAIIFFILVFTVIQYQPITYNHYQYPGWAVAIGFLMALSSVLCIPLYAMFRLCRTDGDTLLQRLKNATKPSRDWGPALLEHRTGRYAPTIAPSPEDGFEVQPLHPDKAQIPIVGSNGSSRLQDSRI
Assay: Radioligand binding assay using recombinant CHO cell membranes expressing human GlyT1
Conditions: radioligand binding to human GlyT1c transporter-expressing membranes
Excerpt: 2. Radioligand binding assays using recombinant CHO cell membranes expressing human GlyT1: […]

| Structure (SMILES) | Ki [µM] |
| --- | --- |
| Cn1cnc(S(=O)(=O)N2C[C@H](NCc3cncs3)[C@@H](c3ccccc3)C2)c1 [Example 457, (3R,4S)-1-[(1-methyl-1H-imidazol-4-yl)sulfonyl]-4-phenyl-N-(1,3-thiazol-5-ylmethyl)pyrrolidin-3-amine] | ≤ 10 |
| CC1=C(CCN[C@H]2CN(S(=O)(=O)c3cn(C)cn3)C[C@@H]2c2ccccc2)C(C)(C)CCC1 [Example 458, (3R,4S)-1-[(1-methyl-1H-imidazol-4-yl)sulfonyl]-4-phenyl-N-[2-(2,6,6-trimethylcyclohex-1-en-1-yl)ethyl]pyrrolidin-3-amine] | ≤ 10 |
| Cc1ccc(CCN[C@H]2CN(S(=O)(=O)c3cn(C)cn3)C[C@@H]2c2ccccc2)cc1 [Example 461, (3R,4S)-1-[(1-methyl-1H-imidazol-4-yl)sulfonyl]-N-[2-(4-methylphenyl)ethyl]-4-phenylpyrrolidin-3-amine] | ≤ 1 |
| CC(C)CCN[C@H]1CN(S(=O)(=O)c2cn(C)cn2)C[C@@H]1c1ccccc1 [Example 463, (3R,4S)-N-(3-methylbutyl)-1-[(1-methyl-1H-imidazol-4-yl)sulfonyl]-4-phenylpyrrolidin-3-amine] | ≤ 1 |
| CC(CCN[C@H]1CN(S(=O)(=O)c2cn(C)cn2)C[C@@H]1c1ccccc1)CC(C)(C)C (stereo partly drawn) [Example 464, (3R,4S)-1-[(1-methyl-1H-imidazol-4-yl)sulfonyl]-4-phenyl-N-(3,5,5-trimethylhexyl)pyrrolidin-3-amine] | ≤ 1 |
| CC(CN[C@H]1CN(S(=O)(=O)c2cn(C)cn2)C[C@@H]1c1ccccc1)c1ccccc1 (stereo partly drawn) [Example 465, (3R,4S)-1-[(1-methyl-1H-imidazol-4-yl)sulfonyl]-4-phenyl-N-(2-phenylpropyl)pyrrolidin-3-amine] | ≤ 1 |
| Cn1cnc(S(=O)(=O)N2C[C@H](NCC3(C)CCCCC3)[C@@H](c3ccccc3)C2)c1 [Example 467, (3R,4S)-N-[(1-methylcyclohexyl)methyl]-1-[(1-methyl-1H-imidazol-4-yl)sulfonyl]-4-phenylpyrrolidin-3-amine] | ≤ 1 |
| Cn1cnc(S(=O)(=O)N2C[C@H](NCCc3cccc(Cl)c3)[C@@H](c3ccccc3)C2)c1 [Example 468, (3R,4S)-N-[2-(3-chlorophenyl)ethyl]-1-[(1-methyl-1H-imidazol-4-yl)sulfonyl]-4-phenylpyrrolidin-3-amine] | ≤ 0.1 |
| Cn1cnc(S(=O)(=O)N2C[C@H](NCCOc3ccc(C(C)(C)C)cc3)[C@@H](c3ccccc3)C2)c1 [Example 469, (3R,4S)-N-[2-(4-tert-butylphenoxy)ethyl]-1-[(1-methyl-1H-imidazol-4-yl)sulfonyl]-4-phenylpyrrolidin-3-amine] | ≤ 1 |
| CCC(CN[C@H]1CN(S(=O)(=O)c2cn(C)cn2)C[C@@H]1c1ccccc1)C(C)C (stereo partly drawn) [Example 470, (3R,4S)-N-(2-ethyl-3-methylbutyl)-1-[(1-methyl-1H-imidazol-4-yl)sulfonyl]-4-phenylpyrrolidin-3-amine] | ≤ 10 |
| Cn1cnc(S(=O)(=O)N2C[C@H](NCCCc3cccc(Cl)c3)[C@@H](c3ccccc3)C2)c1 [Example 471, (3R,4S)-N-[3-(3-chlorophenyl)propyl]-1-[(1-methyl-1H-imidazol-4-yl)sulfonyl]-4-phenylpyrrolidin-3-amine] | ≤ 0.1 |
| Cn1cnc(S(=O)(=O)N2C[C@H](NCc3nc(Br)cs3)[C@@H](c3ccccc3)C2)c1 [Example 472, (3R,4S)-N-[(4-bromo-1,3-thiazol-2-yl)methyl]-1-[(1-methyl-1H-imidazol-4-yl)sulfonyl]-4-phenylpyrrolidin-3-amine] | ≤ 1 |
| Cc1nc(-c2ccccc2)sc1CN[C@H]1CN(S(=O)(=O)c2cn(C)cn2)C[C@@H]1c1ccccc1 [Example 473, (3R,4S)-1-[(1-methyl-1H-imidazol-4-yl)sulfonyl]-N-[(4-methyl-2-phenyl-1,3-thiazol-5-yl)methyl]-4-phenylpyrrolidin-3-amine] | ≤ 0.1 |
| Cc1nc(C)c(S(=O)(=O)N2CC(Nc3ccc(F)c(F)c3)C(c3ccccc3)C2)s1 (centres unmarked) [Example 474, N-(3,4-difluorophenyl)-1-[(2,4-dimethyl-1,3-thiazol-5-yl)sulfonyl]-4-phenylpyrrolidin-3-amine] | ≤ 10 |
| Cc1nn(C(C)C)cc1S(=O)(=O)N1CC(Nc2ccc(F)c(F)c2)C(c2ccccc2)C1 (centres unmarked) [Example 475, N-(3,4-difluorophenyl)-1-{[3-methyl-1-(propan-2-yl)-1H-pyrazol-4-yl]sulfonyl}-4-phenylpyrrolidin-3-amine] | ≤ 10 |
| O=S(=O)(c1cccnc1)N1CC(Nc2ccc(F)c(F)c2)C(c2ccccc2)C1 (centres unmarked) [Example 477, N-(3,4-difluorophenyl)-4-phenyl-1-(pyridin-3-ylsulfonyl)pyrrolidin-3-amine] | ≤ 10 |
| O=c1[nH]c(=O)c2cc(S(=O)(=O)N3CC(Nc4ccc(F)c(F)c4)C(c4ccccc4)C3)ccc2[nH]1 (centres unmarked) [Example 480, 6-({3-[(3,4-difluorophenyl)amino]-4-phenylpyrrolidin-1-yl}sulfonyl)quinazoline-2,4(1H,3H)-dione] | > 10 |
| Cc1cc2c(cc1S(=O)(=O)N1CC(Nc3ccc(F)c(F)c3)C(c3ccccc3)C1)OCC(=O)N2 (centres unmarked) [Example 481, 7-({3-[(3,4-difluorophenyl)amino]-4-phenylpyrrolidin-1-yl}sulfonyl)-6-methyl-2H-1,4-benzoxazin-3(4H)-one] | ≤ 10 |
| Cc1c(S(=O)(=O)N2CC(Nc3ccc(F)c(F)c3)C(c3ccccc3)C2)cnn1C (centres unmarked) [Example 483, N-(3,4-difluorophenyl)-1-[(1,5-dimethyl-1H-pyrazol-4-yl)sulfonyl]-4-phenylpyrrolidin-3-amine] | ≤ 10 |
| Cc1csc(S(=O)(=O)N2CC(Nc3ccc(F)c(F)c3)C(c3ccccc3)C2)c1 (centres unmarked) [Example 484, N-(3,4-difluorophenyl)-1-[(4-methylthiophen-2-yl)sulfonyl]-4-phenylpyrrolidin-3-amine] | ≤ 10 |
| O=S(=O)(N1CCCC1)N1CC(Nc2ccc(F)c(F)c2)C(c2ccccc2)C1 (centres unmarked) [Example 485, N-(3,4-difluorophenyl)-4-phenyl-1-(pyrrolidin-1-ylsulfonyl)pyrrolidin-3-amine] | ≤ 10 |

Other lines, results leading:

| Ki [µM] | Structure (SMILES) |
| --- | --- |
| ≤ 10 | Cc1nn(C)c(Cl)c1S(=O)(=O)N1CC(Nc2ccc(F)c(F)c2)C(c2ccccc2)C1 (centres unmarked) [Example 486, 1-[(5-chloro-1,3-dimethyl-1H-pyrazol-4-yl)sulfonyl]-N-(3,4-difluorophenyl)-4-phenylpyrrolidin-3-amine] |
| ≤ 10 | Cc1oncc1S(=O)(=O)N1CC(Nc2ccc(F)c(F)c2)C(c2ccccc2)C1 (centres unmarked) [Example 487, N-(3,4-difluorophenyl)-1-[(5-methyl-1,2-oxazol-4-yl)sulfonyl]-4-phenylpyrrolidin-3-amine] |
| ≤ 10 | Cc1ncc(S(=O)(=O)N2CC(Nc3ccc(F)c(F)c3)C(c3ccccc3)C2)n1C (centres unmarked) [Example 490, N-(3,4-difluorophenyl)-1-[(1,2-dimethyl-1H-imidazol-5-yl)sulfonyl]-4-phenylpyrrolidin-3-amine] |
| ≤ 10 | COC(=O)c1csc(S(=O)(=O)N2CC(Nc3ccc(F)c(F)c3)C(c3ccccc3)C2)c1OC (centres unmarked) [Example 491, methyl 5-({3-[(3,4-difluorophenyl)amino]-4-phenylpyrrolidin-1-yl}sulfonyl)-4-methoxythiophene-3-carboxylate] |
| ≥ 10 | CCc1ccc(S(=O)(=O)N2CC(Nc3ccc(F)c(F)c3)C(c3ccccc3)C2)s1 (centres unmarked) [Example 492, N-(3,4-difluorophenyl)-1-[(5-ethylthiophen-2-yl)sulfonyl]-4-phenylpyrrolidin-3-amine] |
| ≤ 10 | CC1CCN(S(=O)(=O)N2CC(Nc3ccc(F)c(F)c3)C(c3ccccc3)C2)CC1 (centres unmarked) [Example 493, N-(3,4-difluorophenyl)-1-[(4-methylpiperidin-1-yl)sulfonyl]-4-phenylpyrrolidin-3-amine] |
| ≤ 10 | O=S(=O)(c1ccc(N2CCOCC2)nc1)N1CC(Nc2ccc(F)c(F)c2)C(c2ccccc2)C1 (centres unmarked) [Example 494, N-(3,4-difluorophenyl)-1-{[6-(morpholin-4-yl)pyridin-3-yl]sulfonyl}-4-phenylpyrrolidin-3-amine] |
| > 10 | O=S(=O)(c1ccc2c(c1)OCO2)N1CC(Nc2ccc(F)c(F)c2)C(c2ccccc2)C1 (centres unmarked) [Example 495, 1-(1,3-benzodioxol-5-ylsulfonyl)-N-(3,4-difluorophenyl)-4-phenylpyrrolidin-3-amine] |
| ≥ 10 | O=S(=O)(c1ccc2c(c1)OCCO2)N1CC(Nc2ccc(F)c(F)c2)C(c2ccccc2)C1 (centres unmarked) [Example 496, N-(3,4-difluorophenyl)-1-(2,3-dihydro-1,4-benzodioxin-6-ylsulfonyl)-4-phenylpyrrolidin-3-amine] |
| ≤ 10 | O=S(=O)(c1cnc2n1CCC2)N1CC(Nc2ccc(F)c(F)c2)C(c2ccccc2)C1 (centres unmarked) [Example 497, N-(3,4-difluorophenyl)-1-(6,7-dihydro-5H-pyrrolo[1,2-a]imidazol-3-ylsulfonyl)-4-phenylpyrrolidin-3-amine] |
| ≤ 10 | O=S(=O)(CC1CCCCO1)N1CC(Nc2ccc(F)c(F)c2)C(c2ccccc2)C1 (centres unmarked) [Example 498, N-(3,4-difluorophenyl)-4-phenyl-1-[(tetrahydro-2H-pyran-2-ylmethyl)sulfonyl]pyrrolidin-3-amine] |
